“And” between values parts separate entries of the source, which are not always exact repeats. Equal entries are not always repeated.

IC50 and inhibition data for 59 compounds are collected here from PMC10223992, “In Silico-Motivated Discovery of Novel Potent Glycogen Synthase-3 Inhibitors: 1-(Alkyl/arylamino)-3H-naphtho[1,2,3-de]quinoline-2,7-dione Identified as a Scaffold for Kinase Inhibitor Development” (Pharmaceuticals, 2023).

T1 sequence (P49841 whole entry): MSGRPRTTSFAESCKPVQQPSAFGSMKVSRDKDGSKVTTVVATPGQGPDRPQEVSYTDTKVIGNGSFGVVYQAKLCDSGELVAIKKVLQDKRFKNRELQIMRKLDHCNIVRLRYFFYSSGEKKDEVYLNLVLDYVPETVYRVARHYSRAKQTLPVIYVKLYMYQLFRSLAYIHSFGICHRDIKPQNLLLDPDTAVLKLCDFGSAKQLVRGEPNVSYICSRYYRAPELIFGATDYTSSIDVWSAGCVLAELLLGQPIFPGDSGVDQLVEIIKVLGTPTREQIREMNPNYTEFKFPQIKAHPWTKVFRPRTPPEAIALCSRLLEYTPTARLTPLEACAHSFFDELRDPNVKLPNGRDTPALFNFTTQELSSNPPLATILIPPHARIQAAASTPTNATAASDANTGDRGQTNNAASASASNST

The first test has as its target T1, Homo sapiens GSK-3β (Homo sapiens, UniProt P49841).
T1 construct: purchased MRC Protein Phosphorylation & Ubiquitylation Unit, University of Dundee (screening service)
The experiment in a line: in vitro GSK-3β binding assay (kinase inhibition, MRC PPU Dundee). The test is classed as biochemical. The conditions noted are these: in vitro binding assay, duplicate. As for the experimental part: All predicted inhibitors for testing (except compound 3) were purchased from Vitas-M Laboratory, with purity ≥ 90%. Compound 3 was purchased from Biosynth Carbosynth with purity of 95%. Binding assay experiments against Homo sapiens GSK-3β were performed using a specialist service from the MRC Protein Phosphorylation & Ubiquitylation Unit at the University of Dundee (http://www.kinase-screen.mrc.ac.uk/ (accessed on 1 April 2023)). Initial assays underwent single concentration screening at 50 µM concentrations to determine those compounds showing the best inhibitory potential. Inhibitory activities were calculated based on maximal activities measured in the absence of an inhibitor. […] In the kinase selectivity panel screening for 14 and 19, the compounds were assayed at single concentration (50 μM) against CDK2, CDK5, CDK9, ERK1, ERK2, PKA, PKBβ, PKCα, PKCγ, GSK-3α, and GSK-3β. All binding assay experiments were performed in duplicate.
`Cn1c(=O)c(NCCO)c2c3c(cccc31)C(=O)c1ccccc1-2` [Compound 21]: the half-maximal inhibitory concentration (IC50) worked out at 17 ± 2.7 µM.
`COc1ccccc1Nc1c2c3c(cccc3n(C)c1=O)C(=O)c1ccccc1-2` [Compound 16] had an IC50 of 27.1 ± 1.1 µM.
On the same count and under the same terms, next, `COc1ccc([C@@H]2CC(=O)Nc3cccc4c3c2cn4Cc2ccccc2)c(OC)c1` [Compound 4, (R)-1-benzyl-3-(2,4-dimethoxyphenyl)-1,3,4,6-tetrahydro-5H-azepino[4,3,2-cd]indol-5-one]: 87.5 ± 9.17 µM; `Cc1ccc(Nc2c3c4c(cccc4[nH]c2=O)C(=O)c2ccccc2-3)cc1` [Compound 13]: < 10 µM and 9.4 µM.
Consider `O=C1c2ccccc2-c2c(Nc3ccccc3)c(O)nc3cccc1c23` [Compound 2, 1-(phenylamino)-3H-naphtho[1,2,3-de]quinoline-2,7-dione], for which the IC50 came to 20.6 ± 3.8 µM.
Same read-out and setting: next, `Nc1ccc2ncnc3c2c1C(=O)c1ccccc1-3` [Compound 1, 6-amino-7H-benzo[e]perimidin-7-one]: 1.63 ± 0.3 µM; `COCCCNc1c(O)nc2cccc3c2c1-c1ccccc1C3=O` [Compound 20]: < 10 µM and 9.1 µM.
Same read-out and setting: next, `O=C1c2ccccc2-c2c(NC3CCCCC3)c(=O)[nH]c3cccc1c23` [Compound 18]: 25.3 ± 3.5 µM; `COc1cccc2c1cc1c3c(cc4c(c32)OCO4)C(=O)N1` [Compound 3, 8-methoxy-[1,3]dioxolo[4′,5′:4,5]benzo[1,2,3-cd]benzo[f]indol-5(6H)-one]: 63.7 ± 3.3 µM; `Nc1c2c3c(cccc3[nH]c1=O)C(=O)c1ccccc1-2` [Compound 22]: 36.7 ± 5.7 µM.
Same read-out and setting: next, `COc1ccc(Nc2c3c4c(cccc4[nH]c2=O)C(=O)c2ccccc2-3)cc1` [Compound 15]: 11.4 ± 0.6 µM; `COc1ccc(Nc2c3c4c(c(Br)ccc4n(C)c2=O)C(=O)c2ccccc2-3)cc1` [Compound 17]: 14 ± 3.1 µM.

Staying with this test, now noted: single concentration 50 µM.
Turning to `COc1ccc(Cn2cnc3c([nH]c4ccccc43)c2=O)cc1OC` [Compound 9, 3-(3,4-dimethoxybenzyl)-3,5-dihydro-4H-pyrimido[5,4-b]indol-4-one], 50 µM produced 9% inhibition.
As for `O=C1Nc2cc(Cl)ccc2/C1=C/c1cccc2[nH]ccc12` [Compound 12, (Z)-3-((1H-indol-4-yl)methylene)-6-chloroindolin-2-one], the inhibition at 50 µM is < 0%.
As to `Cc1ccc2c(c1)[C@]1(N[C@@H]([C@@H](C)O)[C@H]3C(=O)N(Cc4ccc5c(c4)OCO5)C(=O)[C@H]31)C(=O)N2` [Compound 10, (3S,3′R,3a′S,6a′R)-5′-(benzo[d][1,3]dioxol-5-ylmethyl)-3′-((R)-1-hydroxyethyl)-5-methyl-2′,3′,3a′,6a′-tetrahydro-4′H-spiro[indoline-3,1′-pyrrolo[3,4-c]pyrrole]-2,4′,6′(5′H)-trione], the inhibition at 50 µM was determined as 6%.
`CN(C)CCn1cnc2c1c(=O)[nH]c(=O)n2Cc1ccccc1` [Compound 6, 3-benzyl-7-(2-(dimethylamino)ethyl)-3,7-dihydro-1H-purine-2,6-dione] registered an inhibition at 50 µM of 11%.
For `O=C1N/C(=C/c2ccccc2)C(=O)N2Cc3ccccc3C[C@@H]12` [Compound 8, (S,E)-3-benzylidene-2,3,11,11a-tetrahydro-4H-pyrazino[1,2-b]isoquinoline-1,4(6H)-dione], the inhibition at 50 µM came to 10%.
Same read-out and setting: next, `Cc1coc2cc3oc(=O)c(CC(=O)N[C@H]4CCCc5c4[nH]c4ccccc54)c(C)c3cc12` [Compound 7, (S)-2-(3,5-dimethyl-7-oxo-7H-furo[3,2-g]chromen-6-yl)-N-(2,3,4,9-tetrahydro-1H-carbazol-1-yl)acetamide]: 10%.
The same measure, in the same setting: next, `O=C1Nc2ccccc2C(=O)N2c3ccccc3C[C@@H]12` [Compound 5, (S)-12a,13-dihydro-6H-benzo[5,6][1,4]diazepino[1,2-a]indole-6,12(11H)-dione]: 20%; `COc1cc2c(cc1OC)[C@@H](c1c(O)[nH]c(=O)n(-c3ccc(C)c(C)c3)c1=O)NCC2` [Compound 11, (S)-5-(6,7-dimethoxy-1,2,3,4-tetrahydroisoquinolin-1-yl)-3-(3,4-dimethylphenyl)-6-hydroxypyrimidine-2,4(1H,3H)-dione]: 2%.

For another test, the system named is GSK-3β.
Experiment: not given
Set-up: method as in ChEMBL database [53]. The conditions noted are these: Table S1, ChEMBL data; ref ChEMBL database [53]; read-out: IC50 (GSK-3β, known actives); cited from earlier work.
As for `O=CN1Cc2cccc3c(C4=C(c5cnc6ccccn56)C(=O)NC4=O)cn(c23)CC1N1CCOCC1` (centres unmarked) [CHEMBL4162850], the IC50 is 0.0013 µM.
Consider `COc1ccncc1-c1ccc2[nH]nc(C(=O)NCC3CCN(CCc4ccccc4)CC3)c2c1` [CHEMBL3735603], for which the IC50 is 0.02 µM.
For the compound `O=c1[nH]cnc2[nH]c(-c3ccnc(/C=C/c4ccc(CN5CCOCC5)cc4)c3)cc12` [CHEMBL461139], the IC50 is 0.3 µM.
As to `COc1cccc(Nc2nccc(C3=C(c4ccccc4)NN4C=CC=CC34)n2)c1` (centres unmarked) [CHEMBL403405], the IC50 was 0.03 µM.
On to `COc1cccc(-n2ncc3c(N/N=C/c4ccc(OCCN(C)C)cc4)ncnc32)c1` [CHEMBL303321], for which the IC50 is 0.00631 µM.
`Fc1cnc2[nH]nc(Nc3cc(C(F)(F)F)cc(-c4ccccc4Cl)n3)c2c1` [CHEMBL3661029]: the IC50 is 0.05 µM.
Take `C[C@@H]1C[C@H]2CN1CCn1nc3c(cccc3c1O)-c1nc3c(cccc3nc1O)O2` [CHEMBL215803]: the IC50 is 0.013 µM.
Consider `COc1cc(C2=C(c3cn(CCN4CCN(C)CC4)c4ccccc34)C(=O)NC2=O)c2occc2c1` [CHEMBL564450], for which the IC50 is 0.00014 µM.
As to `Cc1ccc(-c2c[nH]c(C3COCCN3Cc3c[nH]c4ccccc34)n2)cc1` (centres unmarked) [CHEMBL2297166], the IC50 is 0.12 µM.
Turning to `Cc1ccc(-n2cc(CSC3=NC(c4ccccc4)CC(=O)N3C)nn2)cc1C` (centres unmarked) [CHEMBL4635819], the IC50 was 0.082 µM.
Consider `COc1cc(NCCCN)c2nccc(C)c2c1Oc1cccc(C(F)(F)F)c1` [CHEMBL495039], for which the concentration for half-maximal inhibition (IC50) was […].
Turning to `COc1ccc(-c2ocnc2C(=O)NCc2ccn3ccnc3c2)cc1Cl` [CHEMBL1957231], the IC50 was 0.00501 µM.
As to `N#Cc1ccc2[nH]c(O)c(-c3ccc(CN4CCOCC4)cn3)c2c1` [CHEMBL1969664], the IC50 was 0.031 µM.
Take `COc1ccc(-c2oc3ncnc(N)c3c2-c2cccnc2)cc1` [CHEMBL361567]: the IC50 is 0.08 µM.
For the compound `Cc1ccccc1-n1cc(-c2ccccn2)nn1` [CHEMBL1938959], the IC50 was 0.49 µM.
`COc1ccc(Nc2nnc(-c3ccc(C(F)(F)F)cc3)o2)cc1` [CHEMBL1630483]: the 50% inhibitory concentration (IC50) is 0.053 µM.
As for `O=C(NC1CCNCC1)c1n[nH]cc1NC(=O)c1c(Cl)cccc1Cl` [CHEMBL445813], the IC50 was 0.2 µM.
`O=C(CCl)c1scc(Br)c1Br` [CHEMBL357136]: the half-maximal inhibitory concentration (IC50) is 0.5 µM.
As for `Oc1ccc(Nc2ncnc3[nH]cnc23)cc1CN(CCCl)CCCl` [CHEMBL1630434], the IC50 was 0.0108 µM.
As to `OCC/N=c1\nc(-c2ccccc2)n(-c2cccc3ccccc23)s1` [CHEMBL2022413], the IC50 is 0.3 µM.
With `Nc1c(Br)cc(C(=O)C(Br)Br)cc1Br` [CHEMBL1801628], the IC50 was 0.5 µM.
For `CCc1ccc(-n2cc(CSc3nnc(Cn4c(C(F)(F)F)nc5ccccc54)o3)nn2)cc1` [CHEMBL4643895], the concentration for half-maximal inhibition (IC50) is 0.39 µM.
With `O=C(/C=C/c1cnc2[nH]cc(-c3ccccc3)c2c1)NCCN1CCOCC1` [CHEMBL3891139], the IC50 is 0.046 µM.
On to `COc1ccc(-n2cnc3ccc(-c4nnc(SCc5cccc(C(F)(F)F)c5)o4)cc32)cc1` [CHEMBL513570], for which the IC50 was 0.0025 µM.
Take `FC(F)(F)c1cccc(-c2nn3ncccc3c2-c2ccnc(Nc3ccc4c(c3)OCCO4)n2)c1` [CHEMBL362155]: the IC50 was […].
Turning to `COc1ccc(-c2cc3c(NC(=O)CC4CCCC4)ncnc3o2)cc1` [CHEMBL182891], the IC50 is 0.32 µM.
With `O=C1Nc2ccccc2/C1=C1/Nc2cc(Br)ccc2C1=O` [CHEMBL1830063], the concentration for half-maximal inhibition (IC50) was 0.004 µM.
As to `O=C1Cc2cc(Br)ccc2/C1=c1/[nH]c2ccccc2/c1=C\O` [CHEMBL4077172], the concentration for half-maximal inhibition (IC50) was 0.005 µM.
Regarding `Cc1[nH]c2ccccc2c1C1=C(NCCc2ccc(F)cc2)C(=O)N(C)C1=O` [CHEMBL1254896], the IC50 was 0.053 µM.
Consider `Clc1ccccc1-c1cc(NCOc2cccnc2)n2ncc(Br)c2n1` [CHEMBL398621], for which the IC50 was 0.035 µM.
On to `COc1ccc(-c2cc(-c3ccc(F)cc3)[nH]c(=O)c2O)cc1` [CHEMBL1630451], for which the IC50 is 0.325 µM.
As to `O=C(NCCc1cccnc1Cl)c1ccnc2[nH]c(-c3ccoc3)nc12` [CHEMBL2048673], the IC50 is 0.009 µM.
For `CCOC(=O)C/N=c1\nc(-c2ccc(OC)cc2)n(-c2ccccc2)s1` [CHEMBL2024372], the IC50 was 0.5 µM.
`O=C1Nc2ccccc2/C1=C/c1ccccn1` [CHEMBL2094331]: the half-maximal inhibitory concentration (IC50) was 0.00419 µM.
Regarding `COc1ccc2c(c1C(C)N1CCNCC1)O/C(=C\c1n[nH]c3ncccc13)C2=O` (centres unmarked) [CHEMBL3735890], the IC50 was 0.0061 µM.
`C=CCOC(=O)c1cc(-c2ccc(/C=C3/NC(=S)NC3=O)o2)ccc1Cl` [CHEMBL4568120]: the half-inhibitory concentration (IC50) was 0.218 µM.
For `COc1cc(F)cc(F)c1C1CN(c2nc(-c3ccncn3)cc(=O)n2C)CCN1` (centres unmarked) [CHEMBL4071429], the IC50 was 0.0017 µM.

The same test, now with this note: read-out: IC50 (GSK-3β, known actives); cited from earlier work.
With `CN(C)C[C@@H](OC(=O)N1Cc2c(NC(=O)C(C)(C)C)n[nH]c2C1(C)C)c1ccccc1` [CHEMBL2064628], the half-maximal inhibitory concentration (IC50) is 0.227 µM.
For `Cc1nn(-c2ccc(Cl)cc2Cl)c2c1c1c(c3cccn32)C(=O)NC1=O` [CHEMBL3110144], the IC50 was 0.24 µM.
